Experimental data published in patent US9260710B2, “Photocleavable linker” (City of Hope, priority 2012, dated 2016).

Assays:
[1] = tested on: GFP-LC8 trap transfected Cos1/Cos7 cells; experiment: Organelle dispersion and microtubule array in cells expressing the LC8 trap; assay type: cell-based; conditions: expression of the trap alone, no AP20187
Text: In vivo effect of Dynein LC and IC Traps. As tests for LC function, we evaluated the effects of the traps on early endosome, lysosome, and Golgi distribution, as well as mitotic progression. First, we fused green fluorescent protein (GFP) to the N-terminus of both FKBP-traps to identify transfected cells. Next, we transfected Cos1, Cos7, or HeLa cells with either trap or a GFP-FKBP control and labeled endosomes, lysosomes and Golgi with EEA1, LAMP2 and GM130 markers, respectively (FIGS. 12A-12C). […] The percentage of cells expressing the GFPLC8 or GFP-TcTex1 trap with dispersed endosomes was 14.7±1.5% and 13.3±1.5%, respectively, as compared to 11.7±3.5% and 10.3±3.5% for non-transfected cells and cells that expressed a GFP-FKBP control, respectively. […] After 8 h of treatment with AP20187, we observed greater than 50% dispersion of the three organelle types for each trap.
To ensure the AP20187 concentration was not limiting, we followed the LC8-trap-induced dispersion of lysosomes as a function of AP20187 concentration after 8 h. […] For the TcTex1-trap, we observed efficient endosome, lysosome and Golgi dispersion at AP20187 concentrations of 1 μM or greater.
Kinetic Analysis Separates Dynein Functions. A major purpose for developing these traps is to provide immediate inhibition of protein function and follow the cellular response from this perturbation to gain new insight. Thus, we monitored the fraction of cells with dispersed organelles as a function of time. After induction of dimerization by AP20187, effects on both early endosome and lysosome distribution were detectable at 10 min, and leveled off at ˜2 h (FIGS. 14A-14B). […] The most rapid effect was observed on lysosomes in cells expressing the LC8 trap. In striking contrast, Golgi dispersal using either trap occurred over a much longer time-course, requiring 8 h after induction of dimerization to reach similar levels of dispersion as for endosomes and lysosomes. Twenty-four hours after addition of AP20187, the percentage of cells with dispersed Golgi reached levels greater than 85%.

TcTex1 = experiment: Trap specificity by native PAGE, TcTex1; assay type: binding; conditions: with or without AP20187 treatment
Text: In addition, there is no evidence that LC8 can bind proteins bearing a TcTex1 sequence or vice versa (e.g., LC8 binds to BimEL, Pak1, nNOS, etc.; TcTex1 binds to Doc2α, PTHR receptor, etc.50).

LC8 = molecular target: T1, LC8 (Homo sapiens, UniProt P63167); experiment: Defective mitotic spindle morphology; assay type: cell-based; conditions: transfected cells
T1 construct: we monitored the distribution of Golgi in cells subjected to LC8 RNAi; endogenous in cells
Experimental: As a test for effects on cytoplasmic dynein functions that are distinct from vesicular transport, we monitored mitotic behavior in cells expressing either the LC8- or TcTex1-traps. We observed little effect on either mitotic index or the fraction of mitotic cells at discrete mitotic stages with either trap (data not shown). […] Finally, similar studies were carried out using the IC trap. As before, we observed little or no change in the dispersion of endosomes and Golgi apparatus before AP20187 treatment. Induction of dimerization through the addition of AP20187 (1 μM) produced immediate changes in both organelles. After 4 h, 81+4% of cells contained dispersed endosomes and 68+3% of cells contained dispersed Golgi. […] The precise reason for this difference is not clear; however, currently, we attribute this to a change in the cytoskeleton, but this must still be verified. We are also in the process of measuring the effect of sequestering the dynein IC on mitotic behavior.

T1 sequence (P63167 whole entry): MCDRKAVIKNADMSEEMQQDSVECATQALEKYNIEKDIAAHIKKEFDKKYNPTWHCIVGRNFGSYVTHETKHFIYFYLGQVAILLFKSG

Row | Substance | percentage of cells with dispersed endosomes [1] | binding to TcTex1 (TcTex1) | defective mitotic spindle morphology (LC8)
1 | GFPLC8: green fluorescent protein fused to the N-terminus of the FKBP LC8-trap | 14.7±1.5% |  | 
2 | LC8-trap: LC8 binding region of the dynein IC (residues 125-137, rat IC2C) fused to the C-terminus of FKBP |  | does not bind | 20+2%
